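Assay format: 96-well plates, 48-hour exposure. The concentration for full growth arrest is given as TGI.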
Columns and labels:
Assay in all cases: inhibition of tumour cell growth, NCI panel, 48 h
DMS 114 small cell lung = test system: DMS 114 small cell lung
DU-145 prostate = test system: DU-145 prostate
MDA-N = test system: MDA-N
PC-3 prostate = test system: PC-3 prostate
T-47D breast = test system: T-47D breast
HS 578T breast = test system: HS 578T breast
HOP-18 NSCLC = test system: HOP-18 NSCLC
RXF-631 renal = test system: RXF-631 renal

Measured: TGI

Cc1ccccc1NC(=O)C(=O)C(C1OC(=O)c2ccccc21)[N+](=O)[O-] (stereo not drawn)
> 100 µM: DMS 114 small cell lung

NCC(=O)N[C@H]1c2ccsc2/C(=N/O)[C@H]1O
> 100 µM: DU-145 prostate | MDA-N | PC-3 prostate | T-47D breast

CC1OC1C(=O)P(=O)(O)O (stereo not drawn)
> 100 µM: DU-145 prostate | HS 578T breast | MDA-N | PC-3 prostate | T-47D breast

CCOC(=O)c1ccc(N2C(=O)/C(=C/c3ccc(N(CCC#N)CCC#N)cc3)N=C2c2cc([N+](=O)[O-])ccc2Cl)cc1
> 100 µM: DMS 114 small cell lung | HOP-18 NSCLC | RXF-631 renal

Source: PubChem BioAssay (NCI)
